# Reference: article PMC8619673 (Cells, 2021)
# Key:
# CREB = assay: Western blot, p-CREB; assay type: cell-based, Human; conditions: 5 µM; induced untreated 81%
# Protocol: (§1) Cellular proteins were prepared using a lysis buffer containing NaCl (150 mM), ethylene diamine tetraacetic acid (EDTA, 1 mM, pH8.0), Tris-HCl (50 mM, pH8.0), ethylene glycol tetraacetic acid (EGTA, 1 mM, pH8.0), sodium dodecyl sulfate (SDS, 0.1%), sodium deoxycholate (SD, 0.5%), Triton X-100 (1%), and protease (Sigma-Aldrich), and phosphatase (Abcam, Cambridge, MA, USA) inhibitor cocktails. After quantitation by protein assay kit (Bio-Rad, Hercules, CA, USA), 20 µg proteins were separated by SDS-polyacrylamide (10%) gel electrophoresis and transferred to polyvinylidene difluoride (PVDF) membranes (Sigma-Aldrich) using a Mini Trans-Blot cell (Bio-Rad). After blocking, the membrane was probed with anti-TRKB, anti-p-TRKB (Y516), anti-p-TRKB (Y817) (1:500; Cell Signaling, Danvers, MA, USA), anti-ERK, anti-p-ERK (T202/Y204) (1:1000; Cell Signaling), anti-AKT, anti-p-AKT (S473) (1:1000; Cell Signaling), anti-CREB, anti-p-CREB (S133) (1:1000; Millipore, Billerica, MA, USA), anti-BDNF, anti-BCL2 (1:500; Santa Cruz Biotechnology, Santa Cruz, CA, USA), anti-BAX (1:1000; Cell Signaling), anti-β-tubulin (1:500; Sigma-Aldrich), or anti-GAPDH (1:1000, MDBio, Taipei, Taiwan) antibody. The immune complexes were detected using goat anti-mouse or goat anti-rabbit IgG antibody conjugated with horseradish peroxidase (1:5000; GeneTex, Irvine, CA, USA) and chemiluminescent substrate (Millipore).
# AKT = assay: Western blot, p-AKT; assay type: cell-based, Human; conditions: 5 µM; induced untreated 81%
# Protocol: as §1
# BDNF = assay: Western blot, BDNF; assay type: cell-based, Human; conditions: 5 µM; for BDNF 14 kDa protein level relative to uninduced cells (100%): induced untreated 42%; for BDNF 32 kDa protein level relative to uninduced cells (100%): induced untreated 88%
# Protocol: as §1
# Aβ-GFP SH-SY5Y cells = assay: Aβ-GFP fluorescence (Aβ-GFP folding reporter); assay type: cell-based, Human; conditions: 1–5 μM, normalized with cell number, day 8
# Protocol: To induce neuronal differentiation, 2 × 10^4 Aβ-GFP SH-SY5Y cells were seeded on a 96-well plate with retinoic acid (10 µM; Sigma-Aldrich). Cells were pretreated with tested compounds (0.2–5 µM) on day 2 for 8 h and then with doxycycline (5 μg/mL) to induce Aβ-GFP expression. Medium containing retinoic acid compound and doxycycline was refreshed every 2 days for 6 days. Then, cells were stained with Hoechst 33342 (0.1 µg/mL; Sigma-Aldrich) at 37 °C for 30 min. Cell images were recorded at 482/35 nm excitation and 536/40 nm emission wavelengths (ImageXpres Micro Confocal High-Content Imaging System; Molecular Devices, Sunnyvale, CA, USA), and analyzed by MetaXpress (Molecular Devices).
# Aβ-GFP RNA = assay: Real-time PCR of Aβ-GFP RNA; assay type: cell-based, Human; conditions: 5 μM; untreated 28.6; not significantly affected
# From the text: RNA was extracted using TRIzol reagent (Invitrogen, Carlsbad, CA, USA), followed by treatment with DNase I (Stratagene, La Jolla, CA, USA). cDNA was synthesized by SuperScript™ III reverse transcriptase (Invitrogen) according to manufacturer’s instruction and used to determine Aβ-GFP mRNA expression by StepOnePlus™ Real-time PCR system (Applied Biosystems, Foster City, CA, USA) using customized GFP primers (forward primer: 5′-[…]-3′, reverse primer: 5′-[…]-3′), FAM/NFQ probe (5′-[…]-3′), and TaqMan hypoxanthine phosphoribosyltransferase 1 (HPRT1) endogenous control (VIC/MGB probe, 4326321E) (Applied Biosystems). Fold change was calculated using the formula 2^ΔCt, ΔCT = CT (HPRT1)—CT (GFP), in which CT indicates the number of threshold cycles.
# [1] = 1,1-diphenyl-2-picrylhydrazyl radical scavenging; conditions: data not shown
SMILES,p-CREB (S133) protein level relative to uninduced cells (100%) (CREB),p-AKT (S473) protein level relative to uninduced cells (100%) (AKT),BDNF 14 kDa protein level relative to uninduced cells (100%) (BDNF),BDNF 32 kDa protein level relative to uninduced cells (100%) (BDNF),GFP fluorescence intensity relative to untreated cells (100%) (Aβ-GFP SH-SY5Y cells),Relative Aβ-GFP/HPRT1 RNA level (Aβ-GFP RNA),"1,1-diphenyl-2-picrylhydrazyl radical scavenging activity [1]"
"CCOC(=O)c1cc2c(O)cccc2oc1=O [ZN014, ethyl 5-hydroxy-2-oxo-2H-chromene-3-carboxylate]",98–101%,91–110%,124–140%,113–119%,111–119%,29.2–30.0 folds of induction,"no 1,1-diphenyl-2-picrylhydrazyl radical scavenging activity"
"O=C(/C=C/c1ccccc1O)c1c(O)c2ccccc2oc1=O [ZN015, (E)-4-hydroxy-3-(3-(2-hydroxyphenyl)acryloyl)-2H-chromen-2-one]",98–101%,91–110%,124–140%,113–119%,113–125%,29.2–30.0 folds of induction,"no 1,1-diphenyl-2-picrylhydrazyl radical scavenging activity"
